# Experimental data from patent US7851487B2, “Use of tetrahydropyridines in the treatment of central nervous system disorders” (The Research Foundation of State University of New York, priority 2006, dated 2010).
# Assays:
# Dopamine D2L = target: T1, Dopamine D2L (Homo sapiens, UniProt P14416); assay: Radioligand binding, Dopamine D2L ([3H]Spiperone)
# T1 construct: host or cells: CHO cells
# Protocol: (§1) The assays utilized human neuroreceptors and were performed under the experimental parameters set forth in Table 2 using standard techniques.
# (§2) For Table 3, IC50 values were determined by non-linear, least squares regression analysis using Data Analysis Toolbox™ (MDL Information Systems, San Leandro, Calif., USA). Inhibition constants (KI) were calculated using the equation of Cheng and Prusoff (Cheng, Y., et al. Biochem. Pharmacol. 22:3099-3108, 1973) using the observed IC50 of the tested compound, the concentration of radioligand employed in the assay, and the values for the KD of the ligand. The Hill coefficient (nH), defining the slope of the competitive binding curve, was calculated using the Data Analysis Toolbox™. Biochemical assay results are presented as the percent inhibition of specific binding or activity unless indicated otherwise. The experiments summarized in Table 3 utilized human dopamine D1, D2 s, D21, D3, D4.2, D4.4, serotonin 5HT1A, 5HT2A, 5HT2C, 5HT6, 5HT7, dopamine transporter (DAT), serotonin transporter (SERT) and the norepinephrine transporter (NET), as indicated in Table 3.
# Dopamine D4.4 = target: T2, Dopamine D4.4 (Homo sapiens, UniProt P21917); assay: Radioligand binding, Dopamine D4.4 ([3H]Spiperone)
# T2 construct: host or cells: CHO-K1 cells
# T2 sequence (P21917 1-419): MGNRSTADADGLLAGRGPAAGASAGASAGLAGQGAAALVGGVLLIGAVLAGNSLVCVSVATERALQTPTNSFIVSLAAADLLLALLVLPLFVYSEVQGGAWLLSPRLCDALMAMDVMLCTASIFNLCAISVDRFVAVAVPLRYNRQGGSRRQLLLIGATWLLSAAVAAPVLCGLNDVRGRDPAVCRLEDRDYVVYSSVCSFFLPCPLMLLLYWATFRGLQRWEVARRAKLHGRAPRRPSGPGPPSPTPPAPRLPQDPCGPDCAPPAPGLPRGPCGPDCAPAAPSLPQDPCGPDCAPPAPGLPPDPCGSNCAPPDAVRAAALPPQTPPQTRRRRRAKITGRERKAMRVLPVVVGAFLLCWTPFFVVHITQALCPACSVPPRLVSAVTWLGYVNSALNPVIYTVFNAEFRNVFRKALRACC
# Protocol: as §1, §2
# [1] = target: T3, Dopamine transporter (DAT) (Homo sapiens, UniProt Q01959); assay: Radioligand binding, Dopamine transporter (DAT) ([125I]RTI-55)
# T3 construct: host or cells: CHO-K1 cells
# T3 sequence (Q01959 whole entry): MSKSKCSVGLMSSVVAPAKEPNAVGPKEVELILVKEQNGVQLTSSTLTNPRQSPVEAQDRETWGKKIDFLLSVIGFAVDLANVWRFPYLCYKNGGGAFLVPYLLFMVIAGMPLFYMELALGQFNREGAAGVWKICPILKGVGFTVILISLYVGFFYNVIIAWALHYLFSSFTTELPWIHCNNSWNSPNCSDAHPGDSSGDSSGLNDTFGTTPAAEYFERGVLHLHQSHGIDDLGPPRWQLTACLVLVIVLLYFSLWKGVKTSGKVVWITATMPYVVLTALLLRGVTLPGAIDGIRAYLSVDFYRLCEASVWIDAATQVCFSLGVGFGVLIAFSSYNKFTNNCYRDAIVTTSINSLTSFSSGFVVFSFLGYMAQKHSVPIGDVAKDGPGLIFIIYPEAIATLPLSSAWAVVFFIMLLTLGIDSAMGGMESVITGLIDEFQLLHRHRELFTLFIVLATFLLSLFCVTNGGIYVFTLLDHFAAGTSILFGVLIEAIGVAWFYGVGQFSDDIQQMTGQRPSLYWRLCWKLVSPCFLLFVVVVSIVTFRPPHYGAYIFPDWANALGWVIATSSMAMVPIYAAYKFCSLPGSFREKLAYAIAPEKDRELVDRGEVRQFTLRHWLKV
# Protocol: as §1, §2
# T1 sequence (P14416 whole entry): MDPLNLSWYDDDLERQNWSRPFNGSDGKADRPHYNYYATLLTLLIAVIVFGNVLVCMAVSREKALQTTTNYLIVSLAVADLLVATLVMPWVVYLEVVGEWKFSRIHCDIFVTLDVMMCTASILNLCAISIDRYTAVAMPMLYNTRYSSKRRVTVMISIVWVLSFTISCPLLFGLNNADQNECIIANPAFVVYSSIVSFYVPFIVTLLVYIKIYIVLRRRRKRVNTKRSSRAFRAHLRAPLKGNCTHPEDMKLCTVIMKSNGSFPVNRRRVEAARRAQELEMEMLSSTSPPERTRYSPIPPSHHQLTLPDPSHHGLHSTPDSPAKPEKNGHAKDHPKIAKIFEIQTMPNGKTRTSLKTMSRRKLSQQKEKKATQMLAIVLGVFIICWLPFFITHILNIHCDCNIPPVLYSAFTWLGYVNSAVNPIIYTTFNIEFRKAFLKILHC
compound,measurement,setting,value
COC(=O)[C@@H](c1ccc(-c2ccccc2)cc1)[C@H]1C=CCCN1 [Compound 2],IC50,Dopamine D2L,88.2 µM
same,Ki,Dopamine D2L,29.4 µM
same,inhibition at 10 µM,"Dopamine D2L; Dopamine D2l, 10 μM, read-out: Percentage Inhibition",13%
same,inhibition at 100 µM,"Dopamine D2L; Dopamine D2l, 100 μM, read-out: Percentage Inhibition",54%
same,nH,"Dopamine D2L; Dopamine D2l, Hill coefficient",0.716
same,IC50,Dopamine D4.4,66.7 µM
same,Ki,Dopamine D4.4,18.5 µM
same,nH,"Dopamine D4.4; Dopamine D4.4, Hill coefficient",1.01
same,Percentage Inhibition,"Dopamine D4.4; Dopamine D4.4, concentration 100 (unit not given)",62%
same,IC50,[1],13.8 µM
same,Ki,[1],11 µM
same,inhibition at 10 µM,"[1]; Dopamine transporter (DAT), 10 μM, read-out: Percentage Inhibition",33%
same,inhibition at 100 µM,"[1]; Dopamine transporter (DAT), 100 μM, read-out: Percentage Inhibition",74%
same,nH,"[1]; Dopamine transporter (DAT), Hill coefficient",1.3
